Test results published in publication PMC6917776, “Discovery of a chemical probe for PRDM9” (Nature Communications, 2019).
Values joined by “and” are separate entries in the source; they are usually repeats but may differ in a detail not shown here. Equal values may be shown once.

Columns and labels:
[1] = biological target: T1, Biotinylated PRDM9 (amino acids 195–415) (Homo sapiens, UniProt Q9NQV7); assay: Surface plasmon resonance (SPR) binding; parameters: key to SPR steady state response, raw data (Y): response units (RU); conditions: for SPR steady state response, raw data (Y): 350 µM SAM, Exp1–4
T1 construct: Biotinylated PRDM9 (amino acids 195–415)
T1 sequence (Q9NQV7 195-415): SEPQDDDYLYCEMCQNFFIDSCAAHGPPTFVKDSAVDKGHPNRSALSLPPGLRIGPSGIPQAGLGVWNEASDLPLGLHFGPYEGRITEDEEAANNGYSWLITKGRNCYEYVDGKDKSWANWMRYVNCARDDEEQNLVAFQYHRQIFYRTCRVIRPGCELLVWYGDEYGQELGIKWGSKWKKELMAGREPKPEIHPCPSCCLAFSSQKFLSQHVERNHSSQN
Description: Biotinylated PRDM9 (amino acids 195–415) was immobilized on the flow cell of a SA sensor chip in 1x HBS-EP buffer, yielding 5700 RU. Using the buffer with 0.5% DMSO, 350 µM SAM and single cycle kinetic with 60 s contact time and a dissociation time of 120 s at a flow rate of 75 µL/min. […] Only binding to PRDM9 and PRDM7 with ∆Tm of higher than 2 °C was observed. […] All (c–e) experiments were performed in triplicate (n = 3) and data points are presented as average ± standard deviation. Source data are provided as a Source Data file.
Binding studies by SPR were performed using a Biacore T200 (GE Health Sciences Inc.) at 20 °C. Biotinylated PRDM9 was captured onto a flow cell of a streptavidin-conjugated SA chip at approximately 5000 response units (RU) according to manufacturer’s protocol while another flow cell was left empty for reference subtraction. […]
in the presence of SAM are the same as presented in figure 2 (a and b) within the main text. The experiments were performed in quadruplicate in the presence of 350 µM SAM (5x Km) or 750 µM SAH (5x IC50). Biotinylated PRDM9 (195-415aa) was immobilized on the flow cell of an SA sensor chip in 1x HBS-EP buffer, yielding 5700 RU. Using the buffer with 0.5% DMSO, 350 µM SAM or 750 µM SAH and single cycle kinetics with 60 s contact time and a dissociation time of 120 s at a flow rate of 75 µL/min. […]
and at 20 µM in the presence of SAH as the highest concentration. Dilution factor of 0.33 was used to yield 5 concentrations.

[2] = biological target: PRDM8 (Homo sapiens, UniProt Q9NQV8); assay: DSF thermal stabilisation, PRDM selectivity; format: binding; conditions: 250 µM MRK-740; 2 mM SAM
Sequence of PRDM8 (Q9NQV8 whole entry): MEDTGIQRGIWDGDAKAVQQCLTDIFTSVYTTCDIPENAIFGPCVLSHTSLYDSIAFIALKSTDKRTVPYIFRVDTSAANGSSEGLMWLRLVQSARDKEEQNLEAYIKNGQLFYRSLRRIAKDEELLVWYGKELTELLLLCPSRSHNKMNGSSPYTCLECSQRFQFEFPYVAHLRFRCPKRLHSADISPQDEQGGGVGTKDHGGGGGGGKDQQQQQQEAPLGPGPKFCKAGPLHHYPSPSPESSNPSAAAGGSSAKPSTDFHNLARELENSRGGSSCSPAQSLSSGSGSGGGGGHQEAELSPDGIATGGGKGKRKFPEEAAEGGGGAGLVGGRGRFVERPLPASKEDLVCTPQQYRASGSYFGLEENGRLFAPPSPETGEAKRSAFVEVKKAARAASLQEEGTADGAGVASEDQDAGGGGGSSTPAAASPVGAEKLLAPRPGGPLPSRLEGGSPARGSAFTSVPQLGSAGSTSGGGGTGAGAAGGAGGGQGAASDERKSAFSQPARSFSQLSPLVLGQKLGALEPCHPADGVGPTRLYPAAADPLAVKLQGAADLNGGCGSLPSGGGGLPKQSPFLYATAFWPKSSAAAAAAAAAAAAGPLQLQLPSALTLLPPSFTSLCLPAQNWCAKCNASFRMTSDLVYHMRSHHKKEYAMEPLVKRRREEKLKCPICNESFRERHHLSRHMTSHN
Description: DSF measurements were performed as previously described[21] using a Light Cycler 480 II instrument from Roche Applied Science. All proteins tested in these selectivity experiments were used at final concentration of 0.02 mg mL^−1 in a 0.1 M HEPES, pH 7.5 and 150 mM NaCl buffer in the presence of 2 mM SAM. Sypro Orange was purchased from Invitrogen as a 5000 × stock solution (concentration not specified by vendor) and was diluted 1:1000 to yield a 5 × working concentration. The temperature scan curves were fitted to a Boltzmann sigmoid function, and the Tm values were obtained from the midpoint of the transition.

[3] = biological target: T2, Adrenergic α2B (Homo sapiens, UniProt P18089); assay: GPCR functional activity, GloSensor assay (agonist and antagonist mode); format: cell-based
T2 construct: NIMH Psychoactive Drug Screening Program, University of North Carolina at Chapel Hill
T2 sequence (P18089 whole entry): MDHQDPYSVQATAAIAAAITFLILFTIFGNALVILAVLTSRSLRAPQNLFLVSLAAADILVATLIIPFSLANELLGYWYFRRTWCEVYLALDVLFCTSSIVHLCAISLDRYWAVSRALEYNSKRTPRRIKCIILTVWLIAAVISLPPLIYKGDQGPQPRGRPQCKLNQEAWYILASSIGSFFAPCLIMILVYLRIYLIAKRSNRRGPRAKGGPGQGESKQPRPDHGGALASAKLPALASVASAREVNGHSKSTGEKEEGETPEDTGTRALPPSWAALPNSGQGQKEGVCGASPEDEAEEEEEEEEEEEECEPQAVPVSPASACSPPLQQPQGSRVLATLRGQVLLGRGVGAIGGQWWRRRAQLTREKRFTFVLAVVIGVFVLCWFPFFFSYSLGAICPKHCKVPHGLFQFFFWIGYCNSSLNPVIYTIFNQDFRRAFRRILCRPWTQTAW
Source text: (§1) Supplementary Figure 5. Assessment of GPCR functional activity. […]
(§2) profiles were generously provided by the National Institute of Mental Health’s (NIMH)
(§3) Psychoactive Drug Screening Program, (Contract # HHSN-271-2013-00017-C) directed by B.L.
(§4) Roth, University of North Carolina at Chapel Hill and Project Officer J. Driscoll at NIMH,
(§5) Bethesda, Maryland, USA. Further details available at https://pdspdb.unc.edu/pdspWeb/.
(§6) MOR stands for “Opiate µ receptor”. […]
(§7) […] Source data are provided as a

[4] = biological target: T3, Opiate µ receptor (MOR) (Homo sapiens, UniProt P35372); assay: as above; format: cell-based; conditions: for MOR Gi Agonist, raw signal: replicates 1-3; for MOR Tango Antagonist, raw signal: replicates 1-4
T3 construct: NIMH Psychoactive Drug Screening Program, University of North Carolina at Chapel Hill
T3 sequence (P35372 whole entry): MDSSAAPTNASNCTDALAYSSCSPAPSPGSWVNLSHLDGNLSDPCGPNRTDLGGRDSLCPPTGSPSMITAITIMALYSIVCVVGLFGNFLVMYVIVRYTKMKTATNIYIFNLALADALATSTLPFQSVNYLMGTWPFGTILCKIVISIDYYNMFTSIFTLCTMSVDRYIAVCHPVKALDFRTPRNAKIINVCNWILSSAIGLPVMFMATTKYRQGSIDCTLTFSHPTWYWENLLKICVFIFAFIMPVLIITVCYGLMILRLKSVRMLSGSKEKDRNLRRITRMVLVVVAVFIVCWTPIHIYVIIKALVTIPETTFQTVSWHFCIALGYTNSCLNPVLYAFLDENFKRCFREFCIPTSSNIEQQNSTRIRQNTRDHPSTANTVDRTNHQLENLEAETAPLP
Source text: as §1, §2, §3, §4, §5, §6, §7

For `COc1cc(OC)cc(-c2noc(N3CCN(C)C4(CCN(c5ccnc(C)c5)CC4)C3)n2)c1` [MRK-740], the “Binding to PRDM9 in the presence of SAH, compared with SAM (in words)” value ([1]; 750 µM SAH versus 350 µM SAM) was “dramatically weaker”, the “SPR steady state response, raw data (Y)” value ([1]; X = 1.11E-07 (concentration, unit not given)) was 22.0666 and 21.2987 and 20.382 and 19.6958 and the “SPR steady state response, raw data (Y)” value ([1]; X = 1.23E-08 (concentration, unit not given)) was 5.847 and 5.521 and 5.156 and 5.206. The “SPR steady state response, raw data (Y)” value ([1]; X = 3.70E-08 (concentration, unit not given)) was 12.6421 and 12.2536 and 11.7778 and 11.3155, the kon ([1]; in the presence of 350 µM SAM) was 1.2e+06 ± 1e+11 M⁻¹ s⁻¹ and the Kd ([1]; in the presence of 350 µM SAM, n = 4, read-out: Kd, SPR kinetic fit) was 87 ± 5 nM. The “∆ Tm (°C), DSF” value [2] was 1.4 °C, the “Functional activity (in words)” value [3] was “no functional activity” and the “Functional activity (in words)” value ([4]; agonist and antagonist mode) was “some potential agonistic activity”. The “MOR Gi Agonist, raw signal” value ([4]; log[MRK-740] -4.52) was 523.998 and 475.715 and 479.854, the “MOR Tango Antagonist, raw signal” value ([4]; log[MRK-740] -4.52) was 6964.63 and 7700.23 and 6817.3 and 8343.47 and the “MOR Gi Agonist, raw signal” value ([4]; log[MRK-740] -5) was 470.197 and 394.324 and 410.878. For the same molecule, the “MOR Tango Antagonist, raw signal” value ([4]; log[MRK-740] -5) was 5111.95 and 4601.78 and 6359.89 and 4362.1, the “MOR Gi Agonist, raw signal” value ([4]; log[MRK-740] -5.52) was 427.432 and 384.668 and 477.095 and the “MOR Tango Antagonist, raw signal” value ([4]; log[MRK-740] -5.52) was 5940.98 and 5705.68 and 7225.22 and 4368.69. The “MOR Gi Agonist, raw signal” value ([4]; log[MRK-740] -6) was 441.227 and 430.191 and 452.263, the “MOR Tango Antagonist, raw signal” value ([4]; log[MRK-740] -6) was 5577.04 and 4612.78 and 4219.16 and 5663.9 and the “MOR Gi Agonist, raw signal” value ([4]; log[MRK-740] -6.52) was 489.51 and 460.54 and 466.058. For the same molecule, the “MOR Tango Antagonist, raw signal” value ([4]; log[MRK-740] -6.52) was 4965.72 and 6716.14 and 4770.01 and 6856.88, the “MOR Gi Agonist, raw signal” value ([4]; log[MRK-740] -7) was 347.421 and 472.956 and 397.083 and the “MOR Tango Antagonist, raw signal” value ([4]; log[MRK-740] -7) was 4544.61 and 3827.75 and 5625.42 and 6334.6. The “MOR Gi Agonist, raw signal” value ([4]; log[MRK-740] -7.52) was 452.263 and 417.776 and 391.565, the “MOR Tango Antagonist, raw signal” value ([4]; log[MRK-740] -7.52) was 9293.5 and 6501.73 and 7215.33 and 6591.89 and the “MOR Gi Agonist, raw signal” value ([4]; log[MRK-740] -8) was 452.263 and 390.186 and 408.119. The “MOR Tango Antagonist, raw signal” value ([4]; log[MRK-740] -8) was 5778.25 and 5276.87 and 5467.09 and 6480.84, the “MOR Gi Agonist, raw signal” value ([4]; log[MRK-740] -8.52) was 394.631 and 390.374 and 448.545 and the “MOR Tango Antagonist, raw signal” value ([4]; log[MRK-740] -8.52) was 5605.48 and 3120.04 and 6717.48 and 4672.02. For the same molecule, the “MOR Gi Agonist, raw signal” value ([4]; log[MRK-740] -9) was 413.075 and 366.255 and 451.383, the “MOR Tango Antagonist, raw signal” value ([4]; log[MRK-740] -9) was 3692.19 and 5665.93 and 3690.78 and 6270.43 and the “MOR Gi Agonist, raw signal” value ([4]; log[MRK-740] -9.52) was 424.425 and 437.195 and 438.613. For the same molecule, the “MOR Tango Antagonist, raw signal” value ([4]; log[MRK-740] -9.52) was 5109.22 and 7289.66 and 4705.76 and 4478.02, the “MOR Gi Agonist, raw signal” value ([4]; log[MRK-740] -10) was 492.528 and 401.725 and 449.964 and the “MOR Tango Antagonist, raw signal” value ([4]; log[MRK-740] -10) was 3780.75 and 4352.9 and 3641.58 and 3605.03. The “MOR Gi Agonist, raw signal” value ([4]; log[MRK-740] -10.52) was 408.819 and 508.135 and 464.152, the “MOR Tango Antagonist, raw signal” value ([4]; log[MRK-740] -10.52) was 4105.49 and 4174.37 and 7219.37 and 6121.41 and the “MOR Gi Agonist, raw signal” value ([4]; log[MRK-740] -11) was 516.647 and 510.972 and 540.767. The “MOR Tango Antagonist, raw signal” value ([4]; log[MRK-740] -11) was 4295.27 and 3517.87 and 4659.37 and 5872.58, the “MOR Gi Agonist, raw signal” value ([4]; log[MRK-740] -11.52) was 627.314 and 488.271 and 566.306 and the “MOR Tango Antagonist, raw signal” value ([4]; log[MRK-740] -11.52) was 8307.51 and 6114.38 and 4948.96 and 5192.17. The “MOR Gi Agonist, raw signal” value ([4]; log[MRK-740] -12) was 684.066 and 560.63 and 516.647 and the “MOR Tango Antagonist, raw signal” value ([4]; log[MRK-740] -12) was 4510.35 and 4657.96 and 5814.94 and 6055.34.
